What was measured:
[1] = 50% lethal dose by single peritoneal administration, obtained at the time of the dose setting; assay type: in vivo, CDF1 mice
Excerpt: (§1) In these tables, ILSmax means maximum ILS value (%), and corresponding dose (mg/kg) is Shown in parenthesis.

[2] = test system: cisplatin-resistant murine L1210 leukemia cell (L1210/DDP); assay: Antitumor effect on cisplatin-resistant murine L1210 leukemia cell (L1210/DDP); assay type: in vivo, murine; male CDF1 mice; conditions: for ILSmax (maximum percent increase in life-span) / dose corresponding to ILSmax / ILS50 (dose which shows 50% of the ILS value by 5 administrations): i.p. once a day for 5 days; for ILSmax (maximum percent increase in life-span): 30 days observation; for ILS50 (dose which shows 50% of the ILS value by 5 administrations): linear regression
Procedure: (§2) Murine L1210 leukemia cells (1×10^5 cells) were inoculated peritoneally into six-week-old male CDF1 mice on day 0. From the next day after the inoculation, a drug (the compound of the invention or a compound for comparison) was administered peritoneally once a day for 5 days. After 30 days of observation, the percent increase in life-span (ILS) was calculated as follows: […]
(§3) T: mean survival days of the drug-treated group
(§4) C: mean survival days of control group
In these tables, ILSmax means maximum ILS value (%), and corresponding dose (mg/kg) is Shown in parenthesis. In this test, cisplatin and carboplatin were respectively tested in each test lot for accurate comparison.
Antitumor effect on cisplatin-resistant murine L1210 leukemia cell (L1210/DDP):
The test of Test Example 1 was repeated except that cisplatin-resistant murine L1210 leukemia cell (L1210/DDP) was used instead of murine L1210 leukemia cell.

[3] = test system: murine P388 leukemia cell; assay: Antitumor effect on murine P388 leukemia cell; assay type: in vivo, murine; male CDF1 mice; conditions: for ILSmax (maximum percent increase in life-span) / ILS50 (dose which shows 50% of the ILS value by 5 administrations) / dose corresponding to ILSmax: P388, i.p. once a day for 5 days; for ILSmax (maximum percent increase in life-span): 30 days observation; for ILS50 (dose which shows 50% of the ILS value by 5 administrations): linear regression; for TI (therapeutic index, LD50 value/ILS50 value): P388
Procedure: as §2, §3, §4, §1
Antitumor effect on murine P388 leukemia cell:
The test of Test Example 1 was repeated except that 1×10^6 of murine P388 leukemia cells were used instead of 1×10^5 of murine L1210 leukemia cells.

[4] = test system: murine L1210 leukemia cell; assay: Antitumor effect on murine L1210 leukemia cell (increase in life-span of inoculated mice); assay type: in vivo, murine; male CDF1 mice; conditions: for ILSmax (maximum percent increase in life-span) / ILS50 (dose which shows 50% of the ILS value by 5 administrations) / dose corresponding to ILSmax: L1210, i.p. once a day for 5 days; for ILSmax (maximum percent increase in life-span): 30 days observation; for ILS50 (dose which shows 50% of the ILS value by 5 administrations): linear regression; for TI (therapeutic index, LD50 value/ILS50 value): L1210
Procedure: as §2, §3, §4, §1

Structure (SMILES)	LD50 (50% lethal dose) [1]	ILSmax (maximum percent increase in life-span) ([2]; Table 6 test lot)	ILSmax (maximum percent increase in life-span) ([2]; Table 7 test lot)	dose corresponding to ILSmax ([2]; Table 6 test lot)	dose corresponding to ILSmax ([2]; Table 7 test lot)	ILSmax (maximum percent increase in life-span) ([3]; Table 8 test lot)	ILSmax (maximum percent increase in life-span) ([3]; Table 10 test lot)	ILS50 (dose which shows 50% of the ILS value by 5 administrations) ([3]; Table 8 test lot)	ILS50 (dose which shows 50% of the ILS value by 5 administrations) ([3]; Table 10 test lot)	dose corresponding to ILSmax ([3]; Table 8 test lot)	dose corresponding to ILSmax ([3]; Table 10 test lot)	TI (therapeutic index, LD50 value/ILS50 value) ([3]; Table 8 test lot)	TI (therapeutic index, LD50 value/ILS50 value) ([3]; Table 10 test lot)	ILSmax (maximum percent increase in life-span) ([4]; Table 4 test lot)	ILSmax (maximum percent increase in life-span) ([4]; Table 5 test lot)	ILS50 (dose which shows 50% of the ILS value by 5 administrations) ([4]; Table 4 test lot)	ILS50 (dose which shows 50% of the ILS value by 5 administrations) ([4]; Table 5 test lot)	dose corresponding to ILSmax ([4]; Table 4 test lot)	dose corresponding to ILSmax ([4]; Table 5 test lot)	TI (therapeutic index, LD50 value/ILS50 value) ([4]; Table 4 test lot)	also measured
N.N.O=C([O-])C1(C(=O)[O-])CCC1.[Pt+2] [Carboplatin, carboplatin, reference compound]	245.0 mg/kg	8.5%	14.3%	16.0 mg/kg	64.0 mg/kg	73.1%	57.3%	10.5 mg/kg	13.8 mg/kg	16.0 mg/kg	32.0 mg/kg	23.3	17.8	50.6%	72.5%	41.0 mg/kg	33.9 mg/kg	64.0 mg/kg	64.0 mg/kg	6.0	ILSmax (maximum percent increase in life-span) ([3]; Table 9 test lot): 79.8%; ILS50 (dose which shows 50% of the ILS value by 5 administrations) ([3]; Table 9 test lot): 12.1 mg/kg; dose corresponding to ILSmax ([3]; Table 9 test lot): 32.0 mg/kg; TI (therapeutic index, LD50 value/ILS50 value) ([3]; Table 9 test lot): 20.2; TI (therapeutic index, LD50 value/ILS50 value) ([4]; Table 5 test lot): 7.2
N.N.[Cl][Pt][Cl] [Cisplatin, cisplatin, reference compound]		0.9%	5.1%	4.0 mg/kg	4.0 mg/kg	> 120.4%	> 120.9%	< 0.5 mg/kg	< 0.5 mg/kg	4.0 mg/kg	4.0 mg/kg			88.2%	90.0%	1.3 mg/kg	1.1 mg/kg	4.0 mg/kg	4.0 mg/kg		ILSmax (maximum percent increase in life-span) ([3]; Table 9 test lot): > 156.7%; ILS50 (dose which shows 50% of the ILS value by 5 administrations) ([3]; Table 9 test lot): < 0.5 mg/kg; dose corresponding to ILSmax ([3]; Table 9 test lot): 4.0 mg/kg
N.NC1CCCCC1.[Cl][Pt][Cl] [Comparative drug A, cis-dichloroammine cyclohexylamineplatinum(II), reference compound]	31.3 mg/kg	> 157.5%		1.0 mg/kg		101.9%		< 1.0 mg/kg		4.0 mg/kg		> 31.3		97.6%		< 1.0 mg/kg		8.0 mg/kg		> 31.3	TI (therapeutic index, LD50 value/ILS50 value) ([2]; Table 6 test lot): > 31.3; ILS50 (dose which shows 50% of the ILS value by 5 administrations) ([2]; Table 6 test lot): < 1.0 mg/kg
CNO.N.[Cl][Pt][Cl] [Compound No. 1, cis-dichloroammine (N-methylhydroxylamine)platinum(II)]	15.6 mg/kg					> 136.1%		< 0.5 mg/kg		4.0 mg/kg		> 31.2									
CON.N.[Cl][Pt][Cl] [Compound No. 2, cis-dichloroammine (O-methylhydroxylamine)platinum(II)]	22.1 mg/kg					126.9%		< 0.5 mg/kg		4.0 mg/kg		> 44.2									
N.ONC1CCCCC1.[Cl][Pt][Cl] [Compound No. 4, cis-dichloroammine (N-cyclohexylhydroxylamine)platinum(II)]	88.2 mg/kg	> 183.0%		2.0 mg/kg		108.3%		1.1 mg/kg		16.0 mg/kg		80.2		> 120.0%		2.1 mg/kg		8.0 mg/kg		42.0	TI (therapeutic index, LD50 value/ILS50 value) ([2]; Table 6 test lot): > 88.2; ILS50 (dose which shows 50% of the ILS value by 5 administrations) ([2]; Table 6 test lot): < 1.0 mg/kg
CCO[NH][Pt]([Cl])([Cl])[NH]C(C)C [Compound No. 12, cis-dichloro(isopropylamine) (O-ethylhydroxylamine)platinum(II)]	22.1 mg/kg		> 206.1%		2.0 mg/kg										102.5%		1.5 mg/kg		8.0 mg/kg		TI (therapeutic index, LD50 value/ILS50 value) ([2]; Table 7 test lot): > 22.1; ILS50 (dose which shows 50% of the ILS value by 5 administrations) ([2]; Table 7 test lot): < 1.0 mg/kg; TI (therapeutic index, LD50 value/ILS50 value) ([4]; Table 5 test lot): 14.7
CCON.N.O=C1[O][Pt][O]C(=O)C12CCC2 [Compound No. 15, (1,1-cyclobutane dicarboxylate)ammine (O-ethylhydroxylamine)platinum(II)]	176.8 mg/kg						93.6%		8.2 mg/kg		32.0 mg/kg		21.6								
CCCO[NH][Pt]1([NH2])[O]C(=O)C2(CCC2)C(=O)[O]1 [Compound No. 16, (1,1-cyclobutane dicarboxylate)ammine (O-propylhydroxylamine)platinum(II)]	176.8 mg/kg						72.7%		8.2 mg/kg		8.0 mg/kg		21.6								
CC(C)(C)O[NH][Pt]1([NH2])[O]C(=O)C2(CCC2)C(=O)[O]1 [Compound No. 17, (1,1-cyclobutane dicarboxylate)ammine (O-tert-butylhydroxylamine)platinum(II)]	250.0 mg/kg						72.7%		12.4 mg/kg		32.0 mg/kg		20.2								

Reference: patent US5498780A, “Platinum complex and malignant tumor treating drug containing the same” (SS Pharmaceutical Co., Ltd., priority 1994, dated 1996)
